Results as given in patent US20130261191A1, “USE OF ESSENTIAL OIL COMPOUNDS AS HISTOMONASTAT” (DSM IP ASSETS B.V., priority 2007, published 2013).

Tested on: Histomonas meleagridis
Assay: In vitro lethal activity (minimal lethal concentration) towards Histomonas meleagridis culture, Trypan blue vital coloration
Assay type: cell-based
Settings: lowest dilution in which no live organisms were observed; H. meleagridis culture 10^6 parasites/ml, 39° C., anaerobic
Method: The in vitro activity of the several essential oil compounds was assessed using the following technique. Aliquots of 1 ml of H. meleagridis culture (10^6 parasites/ml) were incubated anaerobicaly for 24 h at 39° C. Twelve two-fold dilutions of a stock solution of each compound were prepared in 96-well U bottom plates (Prolabo, Lyon, France) in Tween 80 (Sigma, L'Isle d'Abeau, France) and added to the parasites. The initial dilution was 2% ([…]). After incubation for 24 h and 48 h, the number of live parasite in each culture was estimated by vital coloration with Trypan blue 0.4% (Gibco, BRL Life technology, Cergy Pontoise, France). The lowest dilution in which no live organisms were observed was defined as the minimal lethal concentration (MLC).

SMILES	minimal lethal concentration (MLC) [ppm]
O=C/C=C/c1ccccc1 [cinnamaldehyde, trans-]	250
Cc1ccc(C(C)C)cc1 [cymene, p-]	500
C=CC(C)(O)CCC=C(C)CCC=C(C)C (stereo not drawn) [nerolidol]	125
